Measurements: US20030040456A1, “Method and apparatus for cleaning article” (priority 2000, published 2003)

Key:
[1] = solubility of the organic solvents in castor oil at 30° C.; format: physicochemical
Procedure: In the present invention, the organic solvent having high compatibility with oil is an organic solvent having high compatibility with oil adhered to an article to be cleaned, preferably an organic solvent which can be mixed with castor oil (Japanese Pharmacopoeia Act) as a typical example of the oil and standard oil in any ratio at 30° C. Preferred examples of the organic solvent having high compatibility with such oil include paraffin-based hydrocarbons such as dodecane, undecane and tridecane, naphthene-based hydrocarbons and polar organic solvents. Out of these, polar organic solvents are preferred. The polar organic solvents are preferably organic solvents having a dielectric constant of 8 or more, preferably 10 or more, such as glycol ether-based compounds, pyrrolidone-based compounds and imidazolidinone-based compounds. As the glycol ether-based compounds may be used ethylene glycol-based compounds but preferred are propylene glycol alkyl ether-based compounds.
(§1) The organic solvents and surfactants used in examples and comparative examples are given below.

[2] = solubility of the organic solvents in water at 60° C.; format: physicochemical
Procedure: The organic solvent having high compatibility with oil is preferably a polar organic solvent as described above because excellent cleanability can be obtained. The polar organic solvent is particularly preferably an organic solvent having low compatibility with water, specifically solubility in water at 60° C. of 50 vol % or less, preferably 30 vol % or less. More specifically, the polar organic solvent is preferably selected from a propylene glycol alkyl ether-based compound represented by the following formula (I): [drawing 1]
Compatibility with water means ability of mixing with water in any ratio at 60° C.
as §1

Compound	solubility in castor oil [1]	solubility in water [2]	solubility in water (in words) [2]
CCCCCCCCCCCCCC [TD, n-tetradecane]	infinitely soluble	less than 1 vol %	–
CN1CCN(C)C1=O [DMI, 1,3-dimethyl-2-imidazolidinone]	infinitely soluble	–	infinitely soluble
CN1CCCC1=O [NMP, N-methylpyrrolidone]	infinitely soluble	–	infinitely soluble

Other lines, results leading:

solubility in castor oil [1]	solubility in water [2]	solubility in water (in words) [2]	Compound
infinitely soluble	6 vol %	–	CCCCOCC(C)O (stereo not drawn) [PB, propylene glycol monobutyl ether]
infinitely soluble	10 vol %	–	CCCOC(C)COC(C)CO (stereo not drawn) [DPP, dipropylene glycol monopropyl ether]
infinitely soluble	–	infinitely soluble	dipropylene glycolmonomethyl ether [DPM]
